Measurements from patent US5863889A, “ICAM-1/LFA-1 short-chain peptides and method of using same” (The University of Kansas, priority 1996, dated 1999).
“Also recorded” adds a separate entry of the source. Like-named read-outs stand apart in the source and are kept apart here.

Assays:
Molt3 cells [1] = experiment: Homotypic adhesion assay (MDHC-induced clumping of T-cells); assay type: cell-based, human; set-up: key to Homotypic Adhesion Amount: Any sample having a score of "+++" or "++++" is considered to have a significant ability to modulate T-cell binding interaction; Any sample having a score of "+++" or "++++" is considered to have a significant ability to modulate T-cell binding interaction; conditions: 10 μM MDHC
Experimental: As before, the T-cells were Molt3 cells prepared in RPMI 1640 growth medium according to Example 2. An approximate 7 ml aliquot of the growth medium was centrifuged (Jouan Model GT422 at 1400 rpm for 6.5 minutes), and the supernatant fluid was decanted. The pellet was resuspended in the supernatant fluid at titer of about 1×10^6 cells/ml, with the excess supernatant fluid being retained for future resuspension of the peptides.
A 228 nmol quantity of the LJCRF-1 (Sequence ID No. 6) peptide described in Table 1 was diluted with the supernatant fluid to a 500 μl final volume, and filtered in microcentrifuge filter tubes (0.22 micron filter; 3500 rpm for 6 minutes). Serial dilution of the filtered peptide with supernatant fluid was conducted to yield five 125 μl peptide solutions to give respective concentrations of about 115 μM, 230 μM, 460 μM, 910 μM, and 1.82 mM. At each concentration, a 125 μl portion of the cell suspension was pipetted into each 125 μl portion of the peptide solutions to yield combined samples having a 250 μl volume. The 250 μl samples were seeded into individual wells in a 48-well tissue culture grade plate (from Costar of Cambridge, Md.) and incubated at 37° C. for 30 minutes. Each sample received 5 μl of 2,5-methyl dihydroxy cinnamate ("MDHC") for a 10 μM final concentration, and was subsequently incubated for about 10 hours at 37° C. MDHC induces intercellular clumping of human T-cells (Tibbetts, Butler, and Benedict, submitted) by activating the LFA/ICAM binding interaction between respective cells.
Pictures were taken of five random fields per sample using an Olympus photomicroscope having a 0.8 mm field at 400×magnification, and a 3.2 mm field of view at 100×magnification. The amount of clumping observed was quantified by determining the mean number of clumps per field ± a standard error.
FIGS. 5, 6, and 7 replicate photographs taken from exemplary peptide assays. FIG. 5 is a photograph of the control sample having no peptides and no MDHC added, from which essentially no clumping of cells is observed. […] Any sample having a score of "+++" or "++++" is considered to have a significant ability to modulate T-cell binding interaction. This is similar to results obtained by incubating similarly treated cells with antibody against either LFA or ICAM.
The homotypic adhesion assay assesses the actual ability of a candidate peptide to modulate the ability of T-cells to adhere with one another.

LFA-1 (CD11a) = target: T1, LFA-1 (CD11a) (Homo sapiens, UniProt P20701); experiment: Antibody binding assay (FACS): anti-LFA-1 mAb (mouse IgG anti-human CD11a) binding to Molt3 T-cells after peptide incubation; assay type: cell-based; conditions: for Fluorescence, % change from control of the medium fluorescence intensity: mAb CD11a, average ± standard error of runs
T1 construct: host or cells: Molt3 human T-cell leukemia line
T1 sequence (P20701 26-1170): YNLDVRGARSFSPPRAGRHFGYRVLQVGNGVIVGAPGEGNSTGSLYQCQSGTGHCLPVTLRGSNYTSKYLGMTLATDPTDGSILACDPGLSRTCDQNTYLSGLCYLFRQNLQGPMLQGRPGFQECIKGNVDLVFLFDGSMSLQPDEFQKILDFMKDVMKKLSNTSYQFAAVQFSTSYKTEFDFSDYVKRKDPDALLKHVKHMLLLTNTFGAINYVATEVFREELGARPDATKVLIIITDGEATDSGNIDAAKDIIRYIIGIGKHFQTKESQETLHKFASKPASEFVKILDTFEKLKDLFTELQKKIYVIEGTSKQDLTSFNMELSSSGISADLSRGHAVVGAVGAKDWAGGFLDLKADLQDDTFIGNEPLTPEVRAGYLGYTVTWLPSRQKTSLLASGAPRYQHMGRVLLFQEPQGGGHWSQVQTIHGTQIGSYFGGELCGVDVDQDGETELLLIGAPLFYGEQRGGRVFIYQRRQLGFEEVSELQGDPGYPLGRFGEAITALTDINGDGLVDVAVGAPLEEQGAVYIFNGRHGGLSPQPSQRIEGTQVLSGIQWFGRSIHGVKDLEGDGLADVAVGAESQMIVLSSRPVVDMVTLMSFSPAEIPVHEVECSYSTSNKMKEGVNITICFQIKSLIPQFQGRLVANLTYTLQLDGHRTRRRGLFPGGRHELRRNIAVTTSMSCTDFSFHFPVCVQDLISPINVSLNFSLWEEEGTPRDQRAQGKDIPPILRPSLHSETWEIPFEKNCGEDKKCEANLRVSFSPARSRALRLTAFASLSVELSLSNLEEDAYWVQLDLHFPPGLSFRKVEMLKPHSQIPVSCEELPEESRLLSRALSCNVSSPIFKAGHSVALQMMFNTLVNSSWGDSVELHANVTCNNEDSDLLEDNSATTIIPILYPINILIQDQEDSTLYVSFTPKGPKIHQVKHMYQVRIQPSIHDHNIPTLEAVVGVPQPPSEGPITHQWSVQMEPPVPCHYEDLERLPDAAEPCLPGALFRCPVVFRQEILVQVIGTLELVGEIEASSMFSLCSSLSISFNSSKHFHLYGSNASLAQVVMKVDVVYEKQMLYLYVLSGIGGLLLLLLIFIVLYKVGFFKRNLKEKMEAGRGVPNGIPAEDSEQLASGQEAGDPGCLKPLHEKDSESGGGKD
T1 sequence (P05107 23-769 partner): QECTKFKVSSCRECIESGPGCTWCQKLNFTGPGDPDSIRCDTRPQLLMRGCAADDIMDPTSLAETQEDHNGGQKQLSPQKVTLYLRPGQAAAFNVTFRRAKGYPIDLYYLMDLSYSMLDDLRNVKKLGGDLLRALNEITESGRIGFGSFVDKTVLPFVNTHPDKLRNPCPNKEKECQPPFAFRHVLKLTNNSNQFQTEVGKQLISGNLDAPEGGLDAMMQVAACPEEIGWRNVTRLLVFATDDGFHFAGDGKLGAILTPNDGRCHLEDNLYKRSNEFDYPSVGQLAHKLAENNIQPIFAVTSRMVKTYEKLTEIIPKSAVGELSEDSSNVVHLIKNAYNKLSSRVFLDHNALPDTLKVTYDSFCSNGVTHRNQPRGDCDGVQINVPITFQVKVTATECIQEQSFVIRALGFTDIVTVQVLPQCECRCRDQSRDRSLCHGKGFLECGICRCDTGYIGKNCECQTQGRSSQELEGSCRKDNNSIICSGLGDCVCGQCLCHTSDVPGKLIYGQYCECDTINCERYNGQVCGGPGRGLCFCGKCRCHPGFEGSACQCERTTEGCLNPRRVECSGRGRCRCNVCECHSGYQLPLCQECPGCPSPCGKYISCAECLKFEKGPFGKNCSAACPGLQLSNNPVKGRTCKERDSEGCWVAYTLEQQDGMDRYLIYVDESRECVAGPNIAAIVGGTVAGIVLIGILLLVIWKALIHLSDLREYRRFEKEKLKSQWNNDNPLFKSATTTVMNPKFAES
Experimental: A 1 ml quantity of the Molt3 inoculum was warmed to 37° C. and transferred by pipette into about 25 ml of a growth culture medium including RPMI 1640 lymphocyte growth medium (Fisher Scientific of St. Louis, Miss.) mixed with 10% by volume fetal calf serum, 100 units/ml penicillin, 100 μg/ml streptomycin and 2 mM glutamine. The inoculated culture was incubated for three to four days at 37° C. under a normal atmosphere having about 5% CO2 added thereto. This culture was capable of being maintained indefinitely by siphoning away the top (non-cell containing) layer and adding 50 ml (or more) of growth culture medium at intervals of three to four days.
An aqueous buffer solution including Dulbecco's phosphate buffered saline and bovine serum albumin ("-PBS/BSA solution") was prepared for use, and included a mixture of 200 mg KH2 PO4, 1.15 g Na2 HPO4, 100 mg CaCl2, 200 mg KCl, 100 mg MgCl2.6H2 O, 8 g NaCl, with distilled water added to a final 1 liter volume at room temperature, thus, forming a "PBS" solution of pH 7.4 to which was added 0.5% by weight bovine serum albumin.
An aliquot of about 7 ml was removed from the incubated culture medium and subjected to washing with the PBS/BSA solution. The washing procedure was initiated by placing the aliquot in a centrifuge (Model GT422 from Jouan, distributed Piruscio & Assoc. of Manchester, Miss.) at 1400 rpm for 6.5 minutes to separate the cells from the growth medium. The supernatant fluid was decanted, a 5 ml portion of PBS/BSA solution was transferred by pipette into the pellet, and the mixture was again centrifuged as before. The resulting supernatant fluid was decanted and the cells from the pellet were resuspended in PBS/BSA solution at a titer of about 1×10^6 cells/ml. A 500 μl portion of the solution containing the resuspended cells was placed in a microcentrifuge (Marathon 13K/M from Fisher Scientific of St. Louis, Miss.) at 3500 rpm for six minutes, to provide a washed pellet.
[…] The cells were incubated with the peptide cocktail at 37° C. for 45 minutes.
After incubation with the peptide cocktail, several antibodies were successively mixed into the incubated solution. A 75 μl portion of anti-IgM solution (a mixture of 10 μl of goat anti-human IgM stock purchased from Jackson Immuno Research of Westgrove, Pa.; and 65 μl of PBS/BSA solution) was added to the peptide cocktail for blocking of nonspecific binding of the secondary antibody. The resulting mixture was incubated for 10 minutes on ice. About 0.1 μg of a primary antibody including mouse IgG anti-human CD11a (purified according to conventional protocols at the University of Kansas Department of Pharmacology and Toxicology from an American Type Culture hybridoma cell line having Catalogue Number HB-202) was next stirred into the mixture, which was then incubated for 30 minutes at room temperature. The incubated mixture was placed in a microcentrifuge at 3500 rpm for six minutes to remove the cells from the mixture, and the cell pellet was washed two times by adding 500 μl aliquots of PBS/BSA solution and microfuging to remove non-bound antibodies from the cells as before. The resulting washed pellet was resuspended in 100 μl of a secondary antibody cocktail including 5 μl of fluorescein isothiocyanate ("FITC") labeled goat anti-mouse IgG (from CALTAG of South San Francisco, Calif.) and 95 μl of PBS/BSA solution. The resulting solution was incubated for 30 minutes at room temperature in the dark.
The incubated solution including the secondary antibody cocktail was microfuged at 3500 rpm for six minutes to remove the cells from the solution, and the cell pellet was washed two times with 500 μl portions of PBS/BSA solution, as before, to remove unbound antibodies. […]

Molt3 cells [2] = experiment: Cell metabolic assay (MTT); assay type: cell-based
Experimental: After taking the photographs in Example 3 (and in some instances no photographs were taken), cell metabolic activity was assessed by an MTT assay. A 37.5 μl portion of MTT dye (purchased from SIGMA of St. Louis, Mo.), i.e., 3-[4,5-dimethyl thiazole-2yl]-2, 5- diphenyl tetrazolium bromide; thiazolyl blue) was added to each well, and incubated with the cells at 37° C. for about six hours. After incubation, a 250 μl quantity of a MTT solubilization solution (of a type that may be purchased from either Fischer Scientific of St. Louis, Mo. or BCD Labs of Lawrence, Kans.) was added to each well, and incubated with the cells at room temperature overnight. In the morning, the spectrophotometric absorption of each plate was determined at 570 nm in a microplate ELISA reader manufactured by Cambridge Technologies of Water-town, Mass., in order to assess cell viability as an indicator of potential peptide toxicity.

ICAM-1 = target: T2, ICAM-1 (Homo sapiens, UniProt P05362); experiment: Conformation modulator assay: flow cytometry of FITC-labeled RB-1-88 binding to T-cells after pre-incubation with first peptide; assay type: cell-based; conditions: first peptide 4550 μM
T2 construct: host or cells: Molt3 human T-cell leukemia line
T2 sequence (P05362 28-532): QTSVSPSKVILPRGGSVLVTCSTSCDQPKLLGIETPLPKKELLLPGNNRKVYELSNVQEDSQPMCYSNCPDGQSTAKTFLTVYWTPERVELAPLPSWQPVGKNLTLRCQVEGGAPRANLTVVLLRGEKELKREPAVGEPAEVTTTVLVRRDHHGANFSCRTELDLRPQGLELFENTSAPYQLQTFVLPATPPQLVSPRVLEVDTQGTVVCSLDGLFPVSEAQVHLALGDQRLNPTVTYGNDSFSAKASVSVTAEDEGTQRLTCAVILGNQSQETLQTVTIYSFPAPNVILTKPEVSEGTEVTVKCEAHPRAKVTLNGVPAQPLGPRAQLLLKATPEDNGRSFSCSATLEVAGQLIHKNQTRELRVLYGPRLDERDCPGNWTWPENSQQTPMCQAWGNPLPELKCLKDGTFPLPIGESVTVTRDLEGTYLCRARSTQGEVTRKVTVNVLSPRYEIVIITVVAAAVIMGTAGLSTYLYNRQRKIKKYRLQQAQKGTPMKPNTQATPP
Experimental: The antibody binding assay of Example 2 was twice repeated at a peptide concentration of 4550 μM, each time substituting a 455 nmol quantity of synthetic peptide selected from the group consisting of ICAM-based peptide SC-3-111 (Sequence ID No. 10) and LFA-based peptide LJCRF-4 (Sequence ID No. 16) in respective assays. Following incubation for 30 minutes at 37° C. after introduction of the first peptides, both incubated culture were supplemented by an additional quantity of FITC-labeled RB-1-88 (Sequence ID No. 19) peptide in a quantity sufficient to provide a 1.90 μM concentration in the cell/PBS solution.
Following addition of the RB-1-88 (Sequence ID No. 19) peptide, the mixture was incubated for 30 minutes at 4° C., washed three times with 500 μl PBS/BSA, resuspended in 500 μl PBS/BSA and immediately subjected to a flow cytometer analysis as before. Table 3 presents the results of this analysis, which are also depicted in FIGS. 8 (SC-3-111) and 9 (LJCRF-4).

ICAM-1 (CD54) = target: T3, ICAM-1 (CD54) (Homo sapiens, UniProt P05362); experiment: Antibody binding assay (FACS): anti-ICAM-1 mAb (mouse IgG anti-human CD54) binding to Molt3 T-cells after peptide incubation; assay type: cell-based; conditions: for Fluorescence, % change from control of the medium fluorescence intensity: mAb CD54
T3 construct: host or cells: Molt3 human T-cell leukemia line
T3 sequence (P05362 28-532): as above

[3] = peptide 4550 μM, negative = blocking
[4] = peptide 4550 μM, average ± standard error of runs

| Substance | Homotypic Adhesion Amount (Molt3 cells [1]; peptide 460 μM) | Homotypic Adhesion Effect (Molt3 cells [1]; peptide 460 μM) | Homotypic Adhesion Effect (Molt3 cells [1]; peptide 910 μM) | Homotypic Adhesion Amount (Molt3 cells [1]; peptide 1820 μM) | Homotypic Adhesion Effect (Molt3 cells [1]; peptide 1820 μM) | MTT % Viability (Molt3 cells [2]; peptide 460 μM) [%] | MTT % Viability (Molt3 cells [2]; peptide 910 μM) [%] | MTT % Viability (Molt3 cells [2]; peptide 1820 μM) [%] | Homotypic Adhesion Effect (Molt3 cells [1]; peptide 115 μM) | Homotypic Adhesion Effect (Molt3 cells [1]; peptide 230 μM) | Homotypic Adhesion Amount (Molt3 cells [1]; peptide 910 μM) | MTT % Viability (Molt3 cells [2]; peptide 115 μM) [%] | MTT % Viability (Molt3 cells [2]; peptide 230 μM) [%] | also measured |
| --- | --- | --- | --- | --- | --- | --- | --- | --- | --- | --- | --- | --- | --- | --- |
| LJCRF-1: ICAM-1 based short-chain peptide, Sequence ID No. 6 (QTSVSPSKVILPRGGSVLVTG) | +++ | Block | Block | +++ | Block | 93 | 92 | 66 | – | – | – | – | – | Fluorescence, % change from control of the medium fluorescence intensity (LFA-1 (CD11a); peptide 2275 μM): -12 ± 2%; Fluorescence, % change from control of the medium fluorescence intensity (LFA-1 (CD11a); [3]): -29 ± 3%; blocking efficiency (LFA-1 (CD11a); single above-average run (FIGS. 2, 3), peptide 4550 μM, anti-CD11a): 65% |
| LJCRF-3: ICAM-1 derived short-chain peptide, Sequence ID No. 12 (KELLLPGNNRKVYELSNVQEDSQP) | – | – | – | – | – | – | – | – | – | – | – | – | – | Fluorescence, % change from control of the medium fluorescence intensity (LFA-1 (CD11a); [3]): -13 ± 19%; MTT % Viability (Molt3 cells [2]): 38% |
| LJCRF-4: LFA-1β based modulator peptide, Sequence ID No. 16 (DLSYSLDDLRNVKKLGGDLLRALNE) | ++++ | Block; also recorded: blockers of intercellular adhesion | Block | +++ | Block | 94 | 60 | 11 | Enhance | Enhance; also recorded: binding enhancers | ++++ | 99 | 101 | Homotypic Adhesion Amount (Molt3 cells [1]; peptide 115 μM): +++; Homotypic Adhesion Amount (Molt3 cells [1]; peptide 230 μM): +++; FACS Analysis (RB-1-88 binding) (ICAM-1; then FITC-labeled RB-1-88 1.90 μM, shift vs control): +145%; effect on binding of labeled peptide (RB-1-88 / LJCRF-6) to T-cell ICAM-1 (ICAM-1; FIGS. 8, 9): synergistically increases binding; also recorded: significant T-cell binding enhancement; also recorded: significantly enhanced; effect on anti-ICAM-1 mAb binding (ICAM-1 (CD54); FIG. 4, peptide 4550 μM): promote the specific antibody binding; Fluorescence, % change from control of the medium fluorescence intensity (ICAM-1 (CD54); peptide 2275 μM, average ± standard error of runs): +3 ± 1%; Fluorescence, % change from control of the medium fluorescence intensity (ICAM-1 (CD54); peptide 6825 μM, 1 run): +521%; median peak curve shift (enhancement) (ICAM-1 (CD54); single run of FIG. 4, peptide 4550 μM, anti-ICAM antibody): +447% |
| LJCRF-5: LFA-1α derived short-chain peptide, Sequence ID No. 17 (GVDVDQDGETELIGAPLFYGEQRG) | – | Block | Block | ++++ | Block | 81 | 52 | 20 | Block | Block | ++++ | 95 | 84 | Fluorescence, % change from control of the medium fluorescence intensity (ICAM-1 (CD54); [4]): -17%; metabolic activity by MTT (Molt3 cells [2]; peptide 1820 μM): decrease in metabolic activity |
| LJCRF-6: LFA-1α (insert) based short-chain peptide, Sequence ID No. 18 (ITDGEATDSGNIDAAKDIIYIIGI) | – | – | almost total inhibition | +++ | Block | – | – | – | – | – | – | – | – | Fluorescence, % change from control of the medium fluorescence intensity (ICAM-1 (CD54); [4]): -4% |
| MC-1-80: ICAM-1 derived short-chain peptide, Sequence ID No. 9 (LPRGGSVLVTG) | – | – | – | – | – | – | – | – | – | – | – | – | – | metabolic activity / cellular respiration by MTT (Molt3 cells [2]; peptide 910 μM): enhanced |
| SC-3-223: LFA-1β derived peptide, identical to LJCRF-4 (Sequence ID No. 16), tested separately (DLSYSLDDLRNVKKLGGDLLRALNE) | +++ | Block | Block | ++++ | Block | 112 | 108 | 75 | Block | Block | ++++ | 103 | 109 | Homotypic Adhesion Amount (Molt3 cells [1]; peptide 230 μM): +++ |
